What was measured:
[1] = target: T1, K-Ras G12D (Homo sapiens, UniProt P01116, G12D); assay: p-ERK Cellular 1-Plate Assay (Biological Example 3); type: cell-based; settings: AGS cells (KRAS G12D), 3 h treatment, AlphaLISA p-ERK1/2, 1-plate; Biological Example 3 (values marked *); read-out: AGS PERK EC50
T1 construct: AGS (Cobioer, CBP60476) cell lines which harbor KRAS G12D mutation; host or cells: AGS
Protocol: (§1) The ability of the compound of Formula (IIA′), (II′), or (II) or a pharmaceutically acceptable salt thereof (test compound) to inhibit K-Ras G12D activity was tested using AGS (Cobioer, CBP60476) cell lines which harbor KRAS G12D mutation as described below.
(§2) AGS (Cobioer, CBP60476) were seeded in 384-well plates and cultured overnight (5,000 cells per well, 40 μl total volume). The following morning, cells were treated with test compound, with starting concentration at 10 μM and 3-fold dilution down to 0.5 nM for 3 h at 3° C. DMSO treatment served as control. pERK was then measured using AlphaLISA SureFire Ultra p-ERK/2 (Thr202/Tyr204) Assay Kit (Perkin Elmer, cat #ALSU-PERK) following the manufacturer's instruction as follows.
Briefly, the culture medium was removed and 10 μl 1× lysis buffer was added to each well, followed by 10 minutes incubation on a plate shaker at room temperature. Acceptor mixture was prepared according to manufacturer's instruction. 5 μl acceptor mixture was added to the cell lysate and the plate was wrapped with foil, spun at 500 rpm for 10s and incubated at RT for 60 min. Donor mixture was prepared under subdued light. 5 μl donor mixture was added to the cell lysate and the plate was spun at 500 rpm for 10s and incubated at RT for another 60 min. in the dark.

[2] = target: T1, K-Ras G12D; assay: p-ERK Cellular 2-Plate Assay (Biological Example 2); type: cell-based; settings: AGS cells (KRAS G12D), 3 h treatment, AlphaLISA p-ERK1/2, 2-plate; Biological Example 2 (unmarked values); read-out: AGS PERK EC50
Protocol: as §1
as §2, with “(10.000” for “(5,000”, “well” for “well,”, “staring” for “starting”, “37° C.,” for “3° C.”, “p-ERK” for “pERK”, “p-ERK1/2” for “p-ERK/2”
Briefly, the culture medium was removed and 20 μl 1× lysis buffer was added to each well, followed by 30 minutes incubation on a plate shaker at room temperature. Then 10 μl of lysate was transferred to a white 384-well plate. Acceptor mixture was prepared according to manufacturer's instruction. 5 μl acceptor mixture was added to the cell lysate and the plate was wrapped with foil, spun at 500 rpm for 10 s, and incubated at RT for 60 min. Donor mixture was prepared under subdued light. 5 μl donor mixture was added to the cell lysate and the plate was spun at 500 rpm for 10s and incubated at RT for another 60 min. in the dark. Signal was then measured on a EnVision 2105 multimode plate reader. Percentage inhibition was calculated with DMSO treatment as 100% of signal, and IC50 was calculated by XLfit 5.5.x.

T1 sequence (P01116 1-188 isoform P01116-2 G12D): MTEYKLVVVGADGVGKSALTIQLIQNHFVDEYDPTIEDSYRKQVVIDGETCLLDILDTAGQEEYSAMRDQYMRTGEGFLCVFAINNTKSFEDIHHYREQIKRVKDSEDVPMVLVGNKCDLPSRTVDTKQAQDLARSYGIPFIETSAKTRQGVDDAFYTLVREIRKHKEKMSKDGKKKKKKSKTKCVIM

Row | Compound | EC50 [1] [nM] | EC50 [2] [nM]
1 | C#Cc1c(F)ccc2cccc(-c3ncc4c(N5C[C@H]6CC[C@@H](C5)N6)nc(OCC56CCCCN5CC(=C)C6)nc4c3F)c12 (stereo partly drawn) [Example 51, 4-((1R,5S)-3,8-diazabicyclo[3.2.1]octan-3-yl)-7-(8-ethynyl-7-fluoronaphthalen-1-yl)-8-fluoro-2-((2-methylenehexahydroindolizin-8a(1H)-yl)methoxy)pyrido[4,3-d]pyrimidine] | 836 | –
2 | C#Cc1c(F)ccc2cccc(-c3ncc4c(N5C[C@H]6CC[C@@H](C5)N6)nc(OCC56CCCCCN5CC(=C)C6)nc4c3F)c12 (stereo partly drawn) [Example 52, 4-((1R,5S)-3,8-diazabicyclo[3.2.1]octan-3-yl)-7-(8-ethynyl-7-fluoronaphthalen-1-yl)-8-fluoro-2-((2-methylenehexahydro-1H-pyrrolo[1,2-a]azepin-9a(5H)-yl)methoxy)pyrido[4,3-d]pyrimidine] | > 100 | –
3 | C#Cc1c(F)ccc2cccc(-c3ncc4c(N5C[C@H]6CC[C@@H](C5)N6)nc(OCC56CCCN5CC(=C)CC6)nc4c3F)c12 (stereo partly drawn) [Example 50, 4-((1R,5S)-3,8-diazabicyclo[3.2.1]octan-3-yl)-7-(8-ethynyl-7-fluoronaphthalen-1-yl)-8-fluoro-2-((6-methylenehexahydroindolizin-8a(1H)-yl)methoxy)-pyrido[4,3-d]pyrimidine] | 213 | –
4 | C#Cc1c(F)ccc2cc(O)cc(-c3ncc4c(N5C[C@H]6CC[C@@H](C5)N6)nc(OCC56CCCCCN5CC(=C)C6)nc4c3F)c12 (stereo partly drawn) [Example 44, 4-(4-((1R,5S)-3,8-diazabicyclo[3.2.1]octan-3-yl)-8-fluoro-2-((2-methylenehexahydro-1H-pyrrolo[1,2-a]azepin-9a(5H)-yl)methoxy)pyrido[4,3-d]pyrimidin-7-yl)-5-ethynyl-6-fluoronaphthalen-2-ol] | > 100 | –
5 | C#Cc1cccc2cc(O)cc(-c3ncc4c(N5C[C@H]6CC[C@@H](C5)N6)nc(OCC56CCCN5Cc5cc(OC)ccc56)nc4c3F)c12 (stereo partly drawn) [Example 30, 4-(4-((1R,5S)-3,8-diazabicyclo-[3.2.1]octan-3-yl)-8-fluoro-2-((7-methoxy-2,3-dihydro-1H-pyrrolo[2,1-a]isoindol-9b(5H)-yl)methoxy)-pyrido[4,3-d]-pyrimidin-7-yl)-5-ethynylnaphthalen-2-ol] | – | 4
6 | C#Cc1cccc2cc(O)cc(-c3ncc4c(N5CC6CCC(C5)N6)nc(OCC56CCCN5Cc5ccc(F)cc56)nc4c3F)c12 (stereo not drawn) [Example 26, 4-(4-(3,8-diazabicyclo[3.2.1]octan-3-yl)-8-fluoro-2-((8-fluoro-2,3-dihydro-1H-pyrrolo[2,1-a]isoindol-9b(5H)-yl)-methoxy)pyrido[4,3-d]pyrimidin-7-yl)-5-ethynylnaphthalen-2-ol] | – | 7
7 | C#Cc1cccc2cc(O)cc(-c3ncc4c(N5CC6CC(=C)C(C5)N6)nc(OCC56CCCN5CCC6)nc4c3F)c12 (stereo not drawn) [Example 10, 5-ethynyl-4-(8-fluoro-4-(6-methylene-3,8-diazabicyclo[3.2.1]octan-3-yl)-2-((tetrahydro-1H-pyrrolizin-7a(5H)-yl)methoxy)pyrido[4,3-d]pyrimidin-7-yl)naphthalen-2-ol] | – | 128
8 | C#Cc1cccc2cc(O)cc(-c3ncc4c(N5CC6CCC(C5)N6)nc(OCC56CCCN5Cc5c(F)cccc56)nc4c3F)c12 (stereo not drawn) [Example 24, 4-(4-(3,8-diazabicyclo[3.2.1]octan-3-yl)-8-fluoro-2-((6-fluoro-2,3-dihydro-1H-pyrrolo[2,1-a]isoindol-9b(5H)-yl)-methoxy)pyrido[4,3-d]pyrimidin-7-yl)-5-ethynylnaphthalen-2-ol] | – | 3.7
9 | C#Cc1cccc2cc(O)cc(-c3ncc4c(N5CC6CCC(C5)N6)nc(OCC56CCCN5Cc5cccnc56)nc4c3F)c12 (stereo not drawn) [Example 28, 4-(4-(3,8-diazabicyclo[3.2.1]octan-3-yl)-2-((8,9-dihydro-5H-pyrido[2,3-a]-pyrrolizin-9a(7H)-yl)methoxy)-8-fluoropyrido[4,3-d]pyrimidin-7-yl)-5-ethynylnaphthalen-2-ol] | – | 46

From US20240166669A1, “QUINAZOLINE AMINE DERIVATIVES AS KRAS INHIBITORS” (Nikang Therapeutics, Inc., priority 2021, published 2024)
